# Results taken from patent US20130210809A1, “NOVEL 2-AMINO-4-PYRAZOLYL-THIAZOLE DERIVATIVES AND THEIR USE AS ALLOSTERIC MODULATORS OF METABOTROPIC GLUTAMATE RECEPTORS” (priority 2010, published 2013).
# How the values were obtained:
# [1] = target: T1, recombinant human mGluR4a receptors (Homo sapiens, UniProt Q14833); test: mGluR4 assay on HEK-expressing human mGluR4 (fluorescent cell based Ca2+ mobilization assay, FLIPR); conditions: HEK-293 cells expressing hmGluR4; enhancement of EC25 glutamate response; mean of at least three independent experiments in duplicate; read-out: Ca^2+ Flux (mean EC50)
# T1 construct: expressed in transfected cells
# T1 sequence (Q14833 33-912): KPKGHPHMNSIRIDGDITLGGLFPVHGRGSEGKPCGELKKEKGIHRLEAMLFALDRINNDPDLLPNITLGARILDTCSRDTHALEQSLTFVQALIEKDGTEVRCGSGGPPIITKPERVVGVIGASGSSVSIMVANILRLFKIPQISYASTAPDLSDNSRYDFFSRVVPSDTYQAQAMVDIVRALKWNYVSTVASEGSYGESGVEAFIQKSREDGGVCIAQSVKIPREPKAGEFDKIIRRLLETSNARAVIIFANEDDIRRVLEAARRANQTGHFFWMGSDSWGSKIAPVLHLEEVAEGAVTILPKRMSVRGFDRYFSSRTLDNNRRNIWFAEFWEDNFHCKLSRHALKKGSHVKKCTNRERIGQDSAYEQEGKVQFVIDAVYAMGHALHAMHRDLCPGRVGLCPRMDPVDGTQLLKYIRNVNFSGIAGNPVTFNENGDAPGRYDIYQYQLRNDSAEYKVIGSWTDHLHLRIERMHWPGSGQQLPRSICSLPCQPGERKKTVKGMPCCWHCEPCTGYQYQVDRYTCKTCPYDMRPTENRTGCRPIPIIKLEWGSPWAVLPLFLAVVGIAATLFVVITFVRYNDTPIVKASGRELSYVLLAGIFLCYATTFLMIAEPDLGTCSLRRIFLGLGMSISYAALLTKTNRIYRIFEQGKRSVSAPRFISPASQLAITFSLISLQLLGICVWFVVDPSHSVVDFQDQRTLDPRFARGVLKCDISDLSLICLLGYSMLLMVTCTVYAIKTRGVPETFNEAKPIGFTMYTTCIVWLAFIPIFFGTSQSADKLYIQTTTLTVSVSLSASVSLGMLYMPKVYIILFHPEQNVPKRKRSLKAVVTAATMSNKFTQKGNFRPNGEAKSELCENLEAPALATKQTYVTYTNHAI
# Excerpt: mGluR4 Assay on HEK-Expressing Human mGluR4
# The compounds of the present invention are positive allosteric modulators of mGluR4 receptor. Their activity was examined on recombinant human mGluR4a receptors by detecting changes in intracellular Ca^2+ concentration, using the fluorescent Ca^2+-sensitive dye Fluo4-(AM) and a Fluorometric Imaging Plate Reader (FLIPR, Molecular Devices, Sunnyvale, Calif.).
# The cDNA encoding the human metabotropic glutamate receptor (hmGluR4), (accession number NM_000841.1, NCBI Nucleotide database browser), was subcloned into an expression vector containing also the Hygromycin resistance gene. In parallel, the cDNA encoding a G protein allowing redirection of the activation signal to intracellular calcium flux was subcloned into a different expression vector containing also the Puromycin resistance gene. Transfection of both these vectors into HEK293 cells with PolyFect reagent (Qiagen) according to supplier's protocol, and hygromycin and puromycin treatment allowed selection of antibiotic resistant cells which had integrated stably one or more copies of the plasmids. Positive cellular clones expressing hmGluR4 were identified in a functional assay measuring changes in calcium flux in response to glutamate or selective known mGluR4 orthosteric agonists and antagonists. HEK-293 cells expressing hmGluR4 were maintained in media containing DMEM, dialyzed Fetal Calf Serum (10%), Glutamax™ (2 mM), Penicillin (100 units/mL), Streptomycin (100 μg/mL), Geneticin (100 μg/mL) and Hygromycin-B (40 μg/mL) and Puromycin (1 μg/mL) at 37° C./5% CO2.
# Human mGluR4 HEK-293 cells were plated out 24 hours prior to FLIPR^384 assay in black-walled, clear-bottomed, poly-L-ornithine-coated 384-well plates at a density of 25,000 cells/well in a glutamine/glutamate free DMEM medium containing foetal bovine serum (10%), penicillin (100 units/mL) and streptomycin (100 μg/mL) at 37° C./5% CO2.
# On the day of the assay, the medium was aspirated and the cells were loaded with a 3 μM solution of Fluo4-AM (LuBioScience, Lucerne, Switzerland) in 0.03% pluronic acid. After 1 hour at 37° C./5% CO2, the non incorporated dye was removed by washing cell plate with the assay buffer and the cells were left in the dark at it for six hours before testing. All assays were performed in a pH 7.4 buffered-solution containing 20 mM HEPES, 143 mM NaCl, 6 mM KCl, 1 mM MgSO4, 1 mM CaCl2, 0.125 mM sulfapyrazone and 0.1% glucose.
# After 10 s of basal fluorescence recording, various concentrations of the compounds of the invention were added to the cells. Changes in fluorescence levels were first monitored for 180 s in order to detect any agonist activity of the compounds. Then the cells were stimulated by an EC25 glutamate concentration for an additional 110 s in order to measure enhancing activities of the compounds of the invention. EC25 glutamate concentration is the concentration giving 25% of the maximal glutamate response.
# The concentration-response curves of representative compounds of the present invention were generated using the Prism GraphPad software (Graph Pad Inc, San Diego, USA). The curves were fitted to a four-parameter logistic equation:
# (Y=Bottom+(Top−Bottom)/(1+10̂((Log EC50-X)*Hill Slope)
# allowing the determination of EC50 values.
# The Table 3 below represents the mean EC50 obtained from at least three independent experiments of selected molecules performed in duplicate.
EC50 [1],melting point,SMILES
100 to 1000 nM,247 °C,"COc1ccc(F)cc1-c1n[nH]cc1-c1csc(Nc2nccc(C)n2)n1 [Compound 1-5, 4-(3-(5-Fluoro-2-methoxyphenyl)-1H-pyrazol-4-yl)-N-(4-methylpyrimidin-2-yl)thiazol-2-amine]"
,254 to 255 °C,"Cc1ccnc(Nc2nc(-c3c[nH]nc3C(=O)c3ccccc3)cs2)n1 [Compound 1-25, (4-(2-(4-Methylpyrimidin-2-ylamino)thiazol-4-yl)-1H-pyrazol-3-yl)(phenyl)methanone]"
1000 to 10000 nM,249.5 °C,"Cc1ccnc(Nc2nc(-c3c[nH]nc3C(O)c3ccccc3)cs2)n1 (stereo not drawn) [Compound 1-26, (4-(2-(4-Methylpyrimidin-2-ylamino)thiazol-4-yl)-1H-pyrazol-3-yl)(phenyl)methanol]"
100 to 1000 nM,239 to 240 °C,"Cc1ccnc(Nc2nc(-c3cn[nH]c3C(=O)C3CC3)cs2)n1 [Compound 1-27, Cyclopropyl(4-(2-(4-methylpyrimidin-2-ylamino)thiazol-4-yl)-1H-pyrazol-5-yl)methanone]"
1000 to 10000 nM,239 to 241 °C,"Cc1ccnc(Nc2nc(-c3c[nH]nc3-c3cccc(N(C)C)c3)cs2)n1 [Compound 1-30, 4-(3-(3-(Dimethylamino)phenyl)-1H-pyrazol-4-yl)-N-(4-methylpyrimidin-2-yl)thiazol-2-amine]"
< 100 nM,,"Cc1ccnc(Nc2nc(-c3cn[nH]c3-c3cccc(C#N)c3F)cs2)n1 [Compound 1-35, 2-Fluoro-3-(4-(2-(4-methylpyrimidin-2-ylamino)thiazol-4-yl)-1H-pyrazol-5-yl)benzonitrile]"
1000 to 10000 nM,,"COCc1n[nH]cc1-c1csc(Nc2ncc(F)cn2)n1 [Compound 1-37, N-(5-Fluoropyrimidin-2-yl)-4-(3-(methoxymethyl)-1H-pyrazol-4-yl)thiazol-2-amine]"
1000 to 10000 nM,,"CCc1ccnc(Nc2nc(-c3c[nH]nc3COC)cs2)n1 [Compound 1-38, N-(4-Ethylpyrimidin-2-yl)-4-(3-(methoxymethyl)-1H-pyrazol-4-yl)thiazol-2-amine]"
100 to 1000 nM,,"COC(=O)N1CC=C(c2n[nH]cc2-c2csc(Nc3nccc(C)n3)n2)C1 [Compound 1-39, Methyl 3-(4-(2-(4-methylpyrimidin-2-ylamino)thiazol-4-yl)-1H-pyrazol-3-yl)-2,5-dihydro-1H-pyrrole-1-carboxylate]"
1000 to 10000 nM,,"CC(=O)N1CC=C(c2n[nH]cc2-c2csc(Nc3nccc(C)n3)n2)CC1 [Compound 1-40, 1-(4-(4-(2-(4-Methylpyrimidin-2-ylamino)thiazol-4-yl)-1H-pyrazol-3-yl)-5,6-dihydropyridin-1(2H)-yl)ethanone]"
1000 to 10000 nM,,"COC(=O)N1CC=C(c2n[nH]cc2-c2csc(Nc3nccc(C)n3)n2)CC1 [Compound 1-41, Methyl 4-(4-(2-(4-methylpyrimidin-2-ylamino)thiazol-4-yl)-1H-pyrazol-3-yl)-5,6-dihydropyridine-1 (2H)-carboxylate]"
100 to 1000 nM,,"Cc1ccnc(Nc2nc(-c3c[nH]nc3-c3cccc(N4CCC(O)C4)c3)cs2)n1 (stereo not drawn) [Compound 1-42, 1-(3-(4-(2-(4-Methylpyrimidin-2-ylamino)thiazol-4-yl)-1H-pyrazol-3-yl)phenyl)pyrrolidin-3-ol]"
< 100 nM,,"Cc1nc(Nc2nc(-c3cn[nH]c3)c(C#N)s2)ns1 [Compound 1-44, 2-(5-Methyl-1,2,4-thiadiazol-3-ylamino)-4-(1H-pyrazol-4-yl)thiazole-5-carbonitrile]"
100 to 1000 nM,,"N#Cc1sc(Nc2nccnn2)nc1-c1cn[nH]c1 [Compound 1-45, 2-(1,2,4-Triazin-3-ylamino)-4-(1H-pyrazol-4-yl)thiazole-5-carbonitrile]"
100 to 1000 nM,288 to 291 °C,"CC(=O)c1sc(Nc2nccc(C)n2)nc1-c1cn[nH]c1 [Compound 1-46, 1-(2-(4-Methylpyrimidin-2-ylamino)-4-(1H-pyrazol-4-yl)thiazol-5-yl)ethanone]"
< 100 nM,,"CCOc1sc(Nc2nccc(C)n2)nc1-c1cn[nH]c1 [Compound 1-47, 5-Ethoxy-N-(4-methylpyrimidin-2-yl)-4-(1H-pyrazol-4-yl)thiazol-2-amine]"
